What all share (format): cell-based, male wister rats
The subject of experiment [1] is fat cells. Nature of the experiment: Decomposition of the fat in the fat cell by ACTH. The note with it: ACTH 1 μg/ml + saponin 20 μg/ml, 37° C., two hours; for inhibition at 20 µg/mL: Rattus norvegicus, 2 h, read-out: Rate of inhibition. As for the experimental part:
(§1) Fat tissues were separated from the epididymides of male wister rats weighing 150 to 180 g each, and fat cells were obtained therefrom in accordance with the Rodbell's method [M. Rodbell, J. Biol. Chem., 239, 375 (1964)]. A small section was prepared from 4 g of the fat tissue, and placed in 10 ml. of Krebs-Ringer bicarbonate buffer containing 0.4 g of albumin, 10 mg of collagenase and 5 mg of glucose, and having a pH value of 7.4. It was heated at 37° C. for 50 minutes, and subjected to centrifugal separation at 300 rpm, whereby a floating fat cell layer was separated. Added into the fat cell were 10 ml. of the aforesaid buffer (pH 7.4), and the solution was carefully stirred to wash the fat cell, followed by centrifugal separation at 300 rpm for 30 seconds. This procedure was repeated twice, whereby the fat cells were washed perfectly, and these fat cells were used for the tests.
The fat cells obtained by treating with collagenase were suspended in Krebs-Ringer bicarbonate buffer (KRB) having a pH value of 7.4. Placed into a test tube were 0.3 ml. of the solution thus obtained (containing 100 mg of fat cells), 0.1 ml. of ACTH solution containing 1 μg of ACTH, 0.1 ml. of each saponin solution containing 500 μg of saponin, and 0.3 ml. of a 5% alubumin solution in KRB, and having a pH value adjusted to 7.4. They were heated at 37° C. for two hours, and the amount of the resulting free fatty acid was determined in accordance with the Dole's method [V. P. Dole, J. Biol. Chem., 35, 150 (1958)].
Namely, 3 ml. of Dole's extract were separated into the reaction system, and 1 ml. of a thymol blue solution was added thereinto. Nitrogen was blown into the resulting solution, and the solution was titrated with a 0.008 N aqueous solution of sodium hydroxide, while it was being stirred. The amount of the resulting free fatty acid was determined in accordance with a calibration curve.
The rate of inhibition against fat decomposition was obtained in accordance with the following equation: [formula] wherein A stands for the amount of the free fatty acid formed by addition of ACTH along in the amount of 1 μg/ml.; and B stands for the amount of the free fatty acid formed by addition of ACTH and saponin in the amount of 1 μg/ml. and 20 μg/ml., respectively.

Experiment [2] concerns fat cells. As to the kind of experiment: Decomposition by adrenalin of the fat in the fat cells. The note with it: adrenalin 1 μg/ml + saponin 20 μg/ml, 37° C., two hours; for inhibition at 20 µg/mL: Rattus norvegicus, 2 h, read-out: Rate of inhibition. As for the experimental part: A small section was prepared from 4 g of the fat tissue, and placed in 10 ml. of Krebs-Ringer bicarbonate buffer containing 0.4 g of albumin, 10 mg of collagenase and 5 mg of glucose, and having a pH value of 7.4. […] Added into the fat cell were 10 ml. of the aforesaid buffer (pH 7.4), and the solution was carefully stirred to wash the fat cell, followed by centrifugal separation at 300 rpm for 30 seconds. This procedure was repeated twice, whereby the fat cells were washed perfectly, and these fat cells were used for the tests.
The fat cells obtained by treating with collagenase were suspended in Krebs-Ringer phosphate buffer (KRP) having a pH value of 7.4. Placed into a test tube were 0.3 ml. of the solution thus obtained, and containing 100 mg of fat cells, 0.1 ml. of an adrenalin solution containing 1 μg of adrenalin, 0.1 ml. of a saponin solution containing 20 μg of saponin, and 0.5 ml. of a 5% albumin solution in KRP, and having a pH value adjusted to 7.4. […] More specifically, 3 ml. of Dole's extract were placed in the reaction system, and after they were shaked for five minutes, 3 ml. of heptane were dispensed, and 1 ml. of a thymol blue solution was added thereinto. The resulting solution was titrated with a 0.008 N aqueous solution of sodium hydroxide, while it was being stirred with nitrogen, and the amount of the resulting free fatty acid was determined in accordance with a calibration curve.
The rate of inhibition was obtained in accordance with the equation shown at (1) above.

For experiment [3], the system named is fat cells. Nature of the experiment: Synthesis of fat from glucose in fat cells. The note with it: 20 μg/ml; for Power for synthesis of neutral fat from glucose: 37° C., half an hour; for activation at 20 µg/mL: Rattus norvegicus, 0.5 h, none = 100, read-out: Rate of promotion. How it is done:
as §1
^14 C-glucose having its carbon atoms marked with radioactivity was reacted upon fat cells, and a Geiger count was read to determine the amount of the glucose participating in the fat synthesis and incorporated into the fat cells as a neutral fat, whereby gynosaponins were tested for their effects on the power of the glucose for fat synthesis.
More specifically, the fat cells obtained by treating with collagenase were suspended in KRB, and 0.35 ml. of the resulting solution containing 100 mg of fat cells was placed into a test tube with 0.1 ml. of each saponin solution containing 20 μg of saponin, 0.5 ml. of a 5% albumin solution in KRB, containing 10 mM glucose and having a pH value of 7.4, and 0.05 ml. of a ^14 C-glucose solution which was a 0.5 μCi KRP solution having a pH value of 7.4 and containing 10 mM glucose. They were heated at 37° C. for half an hour, and after 5 ml. of Dole's extract were added and the whole was shaked for five minutes, 3 ml. of heptane and 2 ml. of water were added, and the whole was shaked for five minutes. 3 ml. of a heptane layer were separated, and after an alkaline ethanol solution (0.5 N sodium hydroxide solution, 50 % ethanol solution) was added in the amount of 3 ml., the whole was shaked for five minutes. Then, 1 ml. of an ethanol layer was separated, and 10 ml. of a toluene scintillation solution were added thereinto, followed by determination according to the method of Skipski et al. [Biochem. Biophys. Acta, 106, 386 (1965)].

The structures appear in SMILES notation.

`CC(=CCCC(C)(OC1OC(COC2OC(C)C(O)C(O)C2O)C(O)C(O)C1O)C1CCC2(C)C1C(O)CC1C3(C)CCC(OC4OC(CO)C(O)C(O)C4OC4OC(CO)C(O)C(O)C4O)C(C)(C)C3CCC12C)CO` [gynosaponin P, 20S,26-Hydroxyprotopanaxadiol-3-O-[β-D-glucopyranosyl (1→2)-β-D-glucopyranoside]-20-O-[α-L-rhamnopyranosyl (1→6)-β-D-glucopyranoside]]: in the experiment on fat cells [1], the “Free fatty acid formed by decomposition of fat” value (shortened to “Free fatty acid formed”) is recorded as 6.6 μ Eq/g and the inhibition – broadly, how much of the control response was suppressed – at 20 µg/mL was 21%. In the experiment on fat cells [2], the inhibition at 20 µg/mL turned out to be 10% and the “Free fatty acid formed” value worked out at 12.7 μ Eq/g. In the experiment on fat cells [3], the “Power for synthesis of neutral fat from glucose” value (“Power for synthesis” for short) is reported as 8,165 cpm/g and the activation at 20 µg/mL was found to be 38%.
For `CC(C)=CCC[C@](C)(O[C@@H]1O[C@H](CO[C@@H]2OC[C@@H](O)[C@H](O)[C@H]2O)[C@@H](O)[C@H](O)[C@H]1O)[C@H]1CC[C@]2(C)[C@@H]1[C@H](O)C[C@@H]1[C@@]3(C)CC[C@H](O[C@@H]4O[C@H](CO)[C@@H](O)[C@H](O)[C@H]4O[C@@H]4OC[C@@H](O)[C@H](O)[C@H]4O)C(C)(C)[C@@H]3CC[C@]12C` [gynosaponin Q, 20S-Protopanaxadiol-3-O-[β-D-xylopyranosyl (1→2)-β-D-glucopyranoside]-20-O-[β-D-xylopyranosyl (1→6)-β-D-glucopyranoside]], in the experiment on fat cells [1], the “Free fatty acid formed” value amounted to 5.8 μ Eq/g and the inhibition at 20 µg/mL came to 31%. Further, in the experiment on fat cells [2], the inhibition at 20 µg/mL was 4% and the “Free fatty acid formed” value was 13.5 μ Eq/g. In the experiment with fat cells [3], the “Power for synthesis” value was 11,620 cpm/g and the activation at 20 µg/mL was determined as 54%.
`CC(C)=CCC[C@](C)(O[C@@H]1O[C@H](CO[C@@H]2O[C@@H](C)[C@H](O)[C@@H](O)[C@H]2O)[C@@H](O)[C@H](O)[C@H]1O)[C@H]1CC[C@]2(C)[C@@H]1[C@H](O)C[C@@H]1[C@@]3(C)CC[C@H](O[C@@H]4O[C@H](CO)[C@@H](O)[C@H](O)[C@H]4O[C@@H]4OC[C@@H](O)[C@H](O)[C@H]4O)C(C)(C)[C@@H]3CC[C@]12C` [gynosaponin R, 20S-Protopanaxadiol-3-O-[β-D-xylopyranosyl (1→2)-β-D-glucopyranoside]-20-O-[α-L-rhamnopyranosyl (1→6)-β-D-glucopyranoside]]: in the experiment with fat cells [1], the “Free fatty acid formed” value was 6.2 μ Eq/g and the inhibition at 20 µg/mL came to 26%. In the experiment on fat cells [2], the inhibition at 20 µg/mL came to 1% and the “Free fatty acid formed” value is 14.0 μ Eq/g. Also, in the experiment with fat cells [3], the “Power for synthesis” value is on record as 12,600 cpm/g and the activation at 20 µg/mL worked out at 59%.
In the case of `CC(C)=CCC[C@](C)(O[C@@H]1O[C@H](CO[C@@H]2O[C@H](CO)[C@@H](O)[C@H](O)[C@H]2O)[C@@H](O)[C@H](O)[C@H]1O)[C@H]1CC[C@]2(C)[C@@H]1[C@H](O)C[C@@H]1[C@@]3(C)CC[C@H](O[C@@H]4O[C@H](CO)[C@@H](O)[C@H](O)[C@H]4O)C(C)(C)[C@@H]3CC[C@]12C` [gynosaponin S, 20S-Protopanaxadiol-3-O-β-D-glucopyranoside-20-O-[β-D-glucopyranosyl (1→6)-β-D-glucopyranoside]], in the experiment on fat cells [1], the “Free fatty acid formed” value is recorded as 5.4 μ Eq/g and the inhibition at 20 µg/mL came out at 36%. Also, in the experiment on fat cells [2], the inhibition at 20 µg/mL was determined as 4% and the “Free fatty acid formed” value is 13.5 μ Eq/g. In the experiment on fat cells [3], the “Power for synthesis” value is 10,100 cpm/g and the activation at 20 µg/mL turned out to be 47%.
Consider `CC(=CCC[C@](C)(O[C@@H]1O[C@H](CO[C@@H]2OC[C@@H](O)[C@H](O)[C@H]2O)[C@@H](O)[C@H](O)[C@H]1O)[C@H]1CC[C@]2(C)[C@@H]1[C@H](O)C[C@@H]1[C@@]3(C)CC[C@H](O)C(C)(C)[C@@H]3CC[C@]12C)CO` [gynosaponin U, 20S,26-Hydroxyprotopanaxadiol-20-O-[β-D-xylopyranosyl (1→6)-β-D-glucopyranoside]], for which, in the experiment with fat cells [1], the “Free fatty acid formed” value is 5.6 μ Eq/g and the inhibition at 20 µg/mL amounted to 33%. Also, in the experiment with fat cells [2], the inhibition at 20 µg/mL turned out to be 2% and the “Free fatty acid formed” value is reported as 13.8 μ Eq/g. Besides, in the experiment on fat cells [3], the “Power for synthesis” value is reported as 13,100 cpm/g and the activation at 20 µg/mL is 61%.
Consider `CC(C)=CCC[C@](C)(O[C@@H]1O[C@H](CO[C@@H]2O[C@H](CO)[C@@H](O)[C@H](O)[C@H]2O)[C@@H](O)[C@H](O)[C@H]1O)[C@H]1CC[C@]2(C)[C@@H]1[C@H](O)C[C@@H]1[C@@]3(C)CC[C@H](O[C@@H]4O[C@H](CO[C@@H]5O[C@@H](C)[C@H](O)[C@@H](O)[C@H]5O)[C@@H](O)[C@H](O)[C@H]4O)C(C)(C)[C@@H]3CC[C@]12C` [progynosapogenin A2, 20S-Protopanaxadiol-3-O-[α-L-rhamnopyranosyl (1→6)-β-D-glucopyranoside]-20-O-[β-D-glucopyranosyl (1→6)-β-D-glucopyranoside]], for which, in the experiment on fat cells [1], the “Free fatty acid formed” value is recorded as 6.2 μ Eq/g and the inhibition at 20 µg/mL amounted to 26%. Besides, in the experiment on fat cells [2], the inhibition at 20 µg/mL came out at 8% and the “Free fatty acid formed” value is recorded as 13.0 μ Eq/g. For the same compound, in the experiment on fat cells [3], the “Power for synthesis” value was 12,650 cpm/g and the activation at 20 µg/mL is 59%.
For `CC(=CCC[C@](C)(O[C@@H]1O[C@H](CO)[C@@H](O)[C@H](O)[C@H]1O)[C@H]1CC[C@]2(C)[C@@H]1[C@H](O)C[C@@H]1[C@@]3(C)CC[C@H](O)C(C)(C)[C@@H]3CC[C@]12C)CO` [progynosapogenin O1, 20S,26-Hydroxyprotopanaxadiol-20-O-β-D-glucopyranoside], in the experiment on fat cells [1], the “Free fatty acid formed” value stood at 5.9 μ Eq/g and the inhibition at 20 µg/mL was 30%. In the experiment on fat cells [2], the inhibition at 20 µg/mL came out at 11% and the “Free fatty acid formed” value is listed as 12.6 μ Eq/g. Moreover, in the experiment with fat cells [3], the “Power for synthesis” value is given as 11,200 cpm/g and the activation at 20 µg/mL was found to be 52%.

The record behind these values is patent US4339442A, “Gynosaponins, their use and a process for preparing the same” (priority 1980, dated 1982).
